Measured values from patent US4643999A, “2-substituted imidazo[1,2-c]pyrimidines having anxiolytic properties” (priority 1983, dated 1987).

Tests used:
benzodiazepine receptor = assay: affinity for the benzodiazepine receptor, [3H] flunitrazepam radio receptor binding (Squires and Braestrup, modified); details: inhibition by 50% of specific binding of 0.6 nM [3H] flunitrazepam to rat forebrain membrane preparations
Procedure: The affinity of the compounds for the benzodiazepine receptor was assessed using the radioligand [^3 H] flunitrazepam and modifications of the original radio receptor binding method of Squires and Braestrup [Nature, Vol. 266 (1977) p. 732]. The values given in Table II are nanomolar concentrations of test drug which inhibited the specific binding of 0.6 nM [^3 H] flunitrazepam to rat forebrain membrane preparations by 50% (IC50 nM).

[1] = Geller conflict, screening for anxiolytic activity (conflict method of Geller et al, modified); assay type: in vivo; details: po; read-out: GELLER CONFLICT MED (minimum effective dose at which there was an observed increase in shocks above control)
Procedure: Screening for anxiolytic activity was carried out by modifications of the conflict method of Geller et al [Psychopharmacologia, (1960), Vol. I, p. 482]. The values given in Table II are the minimum effective doses at which there was an observed increase in shocks above control (MED mg/kg po).

SMILES	IC50 (benzodiazepine receptor)	minimal effective dose [1]
CCn1c(OC)cc2nc(C(=O)c3ccccc3)cn2c1=O [Example 2, 2-benzoyl-6-ethyl-7-methoxyimidazo[1,2-c]pyrimidin-5-one]	2000 nM	2 mg/kg
CCCn1c(OC)cc2nc(C(=O)c3ccccc3)cn2c1=O [Example 3, 2-benzoyl-7-methoxy-6-propyl-imidazo[1,2-c]pyrimidin-5-one]	1000 nM	10 mg/kg
COc1cc2nc(C(=O)c3ccccc3)cn2c(C)n1 [Example 4, (7-methoxy-5-methyl-imidazo[1,2-c]pyrimidin-2-yl)-phenylmethanone]	520 nM	50 mg/kg
CCc1nc(OC)cc2nc(C(=O)c3ccccc3)cn12 [Example 5, (5-ethyl-7-methoxy-imidazo[1,2-c]pyrimidin-2-yl)phenylmethanone]	215 nM	10 mg/kg
C=CCn1c(OC)cc2nc(C(=O)c3ccccc3)cn2c1=O [Example 9, 6-allyl-2-benzoyl-7-methoxy-imidazo[1,2-c]pyrimidin-5-one]	500 nM	5 mg/kg
COc1cc2nc(C(=O)c3ccccc3)cn2c(OC)n1 [Example 10, (5,7-dimethoxy-imidazo[1,2-c]pyrimidin-2-yl) phenylmethanone]	1000 nM	10 mg/kg
CCOc1nc(OC)cc2nc(C(=O)c3ccccc3)cn12 [Example 11, (5-ethoxy-7-methoxy-imidazo[1,2-c]pyrimidin-2-yl) phenylmethanone]	890 nM	–
COc1cc2nc(C(=O)c3ccccc3)cn2c(SC)n1 [Example 12, {7-methoxy-5-methylthio-imidazo[1,2-c]pyrimidin-2-yl}phenylmethanone]	126 nM	5 mg/kg
CSc1cc2nc(C(=O)c3ccccc3)cn2c(SC)n1 [Example 13, {5,7-bis(methylthio)-imidazo[1,2-c]pyrimidin-2-yl}phenylmethanone]	18 nM	50 mg/kg
CCn1c(SC)cc2nc(C(=O)c3ccccc3)cn2c1=O [Example 14, 2-benzoyl-6-ethyl-7-methylthio-imidazo[1,2-c]pyrimidin-5-one]	140 nM	5 mg/kg
C=CCn1c(SC)cc2nc(C(=O)c3ccccc3)cn2c1=O [Example 15, 6-allyl-2-benzoyl-7-methylthio-imidazo[1,2-c]pyrimidin-5-one]	120 nM	50 mg/kg
